Assay results published in patent US10357431B2, “Process for the preparation of a pharmaceutical composition comprising a low soluble pharmaceutically active ingredient” (Lek Pharmaceuticals d.d., priority 2010, dated 2019).
Where two headings read alike, the source gives them in different places.

Legend:
[1] = Particle size distribution of ezetimibe (laser diffraction, e.g. Malvern); type: physicochemical
Excerpt: In a particularly exemplified embodiment according to the present invention, the particle size distribution d(0.5) that is present after step (b) and prior to step (c), after step (c) and prior to step (d), and/or after step (d), corresponds essentially to or is smaller than the primary particle size distribution d(0.5) of the API that is used for providing the suspension of step (a). This (further) contributes to a further improved pharmaceutical composition or dosage form, respectively, as e.g. the dissolution profile and controllability are further enhanced. In general, the particle size distribution of a powder, or granular material, or particles e.g. dispersed in fluid, is a list of values or a mathematical function that defines the relative amounts of particles present, sorted according to size. The nomenclature describing the particle size distribution is herein referred to as “d(0.5)”. For example, a d(0.5) of 5 μm means that 50% (by volume) of the particles have a size less than or equal to 5 μm, as tested by any conventional method such as laser diffraction method (e.g. laser diffraction Malvern). When measuring the particle size distribution by laser diffraction Malvern, an appropriate amount of sample (usually a few drops of suspension) is put into a gently mixing chamber filled with water. From this chamber, the sample continuously flows through a measuring chamber and the particle size distribution is determined by laser diffraction. Within the meaning of the present invention, the term “particle size distribution d(0.5) corresponds essentially to or is smaller than” denotes that (i) the particle size distribution d(0.5) of the primary particles when measured after deagglomeration, i.e. after the high energy input treatment has been applied to the suspension containing the API particles, essentially corresponds to the particle size distribution d(0.5) of the primary particles that were used for providing the suspension of step (a); or (ii), alternatively, it denotes that the particle size distribution d(0.5) when measured after deagglomeration is smaller than the particle size distribution d(0.5) of the primary particles that were used for providing the suspension of step (a).
The particle size distribution d(0.5) of the primary API particles used for providing the suspension of step (a) in (A), (B) and (C) can be assessed by any method that is known to a person skilled in the art, such as by using laser diffraction method (e.g. Malvern Mastersizer, see above). As described elsewhere herein, said primary API particles may be present deagglomerated, however said particles may also be present in an agglomerated state. In the latter case, it is also possible to determine the particle size distribution d(0.5) by laser diffraction. If appropriate, it is preferred that the method for carrying out the first measurement corresponds to the method used for carrying out the second measurement.
The method according to the present invention is particularly useful for processing API particles having a particle size distribution d(0.5) that is relatively small, e.g. a particle size distribution d(0.5) where agglomeration is generated (critical particle size/particle size distribution). The critical particle size/particle size distribution for a selected API is known to a person skilled in the art. Further, said size/size distribution can be determined by any suitable method that is known to a person skilled in the art, such as by using SEM or laser diffraction. Usually SEM or more preferably disintegrated tablet suspension is recorded under a visual microscope and is processed with particle recognition software to obtain an estimation of particle size distribution. On SEM pictures, eventually occurring agglomerates are also visible. When using laser diffraction, a suspension of the API is transferred to the dispersing chamber containing water. […]

[2] = cited from earlier work
[3] = Example 3, Table 1, particle size after deagglomeration (suspension passed through ball mill)
[4] = Example 3, Table 1, starting particle size
[5] = Example 4, Table 2, particle size after deagglomeration (high energy rotor-stator mixer)
[6] = Example 4, Table 2, starting particle size
[7] = Example 6, Table 3, particle size after milling (rotor-stator mixer, then ball mill)
[8] = Example 6, Table 3, starting particle size
[9] = Example 7, Table 4, particle size after milling (rotor-stator mixer, then ball mill)
[10] = Example 7, Table 4, starting particle size

O=C1[C@H](CC[C@H](O)c2ccc(F)cc2)[C@@H](c2ccc(O)cc2)N1c1ccc(F)cc1 [ezetimibe]
size below which 50% of micronized ezetimibe particles were ([1]; Comparative Example 5, micronized starting ezetimibe): 3.9 micrometers
D(0.1) [1, 3]: 0.84 μm
D(0.5) [1, 3]: 2.98 μm
D(0.9) [1, 3]: 6.28 μm
D(0.1) [1, 4]: 0.30 μm
D(0.5) [1, 4]: 2.97 μm
D(0.9) [1, 4]: 6.87 μm
change of particle size distribution d(0.5) ([1]; Example 3, suspension passed through a ball mill): remained essentially unchanged
D(0.1) [1, 5]: 0.83 μm
D(0.5) [1, 5]: 2.54 μm
D(0.9) [1, 5]: 5.03 μm
D(0.1) [1, 6]: 0.30 μm
D(0.5) [1, 6]: 2.97 μm
D(0.9) [1, 6]: 6.87 μm
change of particle size distribution d(0.5) ([1]; Example 4, suspension mixed with high energy rotor-stator mixer): remained unchanged
D(0.1) [1, 7]: 0.24 μm
D(0.5) [1, 7]: 1.11 μm
D(0.9) [1, 7]: 4.35 μm
D(0.1) [1, 8]: 0.82 μm
D(0.5) [1, 8]: 3.29 μm
D(0.9) [1, 8]: 6.49 μm
D(0.1) [1, 9]: 0.63 μm
D(0.5) [1, 9]: 1.99 μm
D(0.9) [1, 9]: 5.49 μm
D(0.1) [1, 10]: 0.83 μm
D(0.5) [1, 10]: 2.76 μm
D(0.9) [1, 10]: 5.19 μm
solubility ([2]; in ethanol, methanol, and acetone): freely to very soluble
solubility ([2]; in water): particularly poorly soluble
